Active and inactive are the calls of the source.
Legend:
A549 = assay: Antiproliferative activity against human A549 cells incubated for 72 hrs by CCK8 assay; assay type: functional, cell-based; details: A549, 72 h
HCC827 = assay: Antiproliferative activity against human HCC827 cells incubated for 72 hrs by CCK8 assay; assay type: functional, cell-based; details: HCC827, 72 h
PC-9 [1] = assay: Antiproliferative activity against human PC-9 cells incubated for 72 hrs by CCK8 assay; assay type: functional, cell-based; details: PC-9, 72 h
NCI-H3255 = assay: Antiproliferative activity against human NCI-H3255 cells incubated for 72 hrs by CCK8 assay; assay type: functional, cell-based; details: NCI-H3255, 72 h
NCI-H1975 = assay: Antiproliferative activity against human NCI-H1975 cells incubated for 72 hrs by CCK8 assay; assay type: functional, cell-based; details: NCI-H1975, 72 h
L02 = assay: Antiproliferative activity against human HL7702 cells incubated for 72 hrs by CCK8 assay; assay type: toxicity, cell-based; details: l02, 72 h
[2] = target: T1, Microtubule-associated protein 1 light chain 3 beta/Epidermal growth factor receptor (Homo sapiens, UniProt P00533+Q9GZQ8); assay: ATTEC activity at LC3B/EGFR in human HCC827 cells assessed as protein degradation by immunoblot analysis; assay type: cell-based
PC-9 [3] = assay: Antiproliferative activity against Gefitinib-resistant human PC-9 cells incubated for 72 hrs by CCK8 assay; assay type: functional, cell-based
[4] = target: T1, Microtubule-associated protein 1 light chain 3 beta/Epidermal growth factor receptor; assay: ATTEC activity at LC3B/EGFR in human HCC827 cells assessed as protein degradation at 3.3 uM by immunoblot analysis relative to control; assay type: cell-based
[5] = target: T1, Microtubule-associated protein 1 light chain 3 beta/Epidermal growth factor receptor; assay: ATTEC activity at LC3B/EGFR in human HCC827 cells assessed as protein degradation at 0.33 uM by immunoblot analysis relative to control; assay type: cell-based
[6] = target: T1, Microtubule-associated protein 1 light chain 3 beta/Epidermal growth factor receptor; assay: ATTEC activity at LC3B/EGFR in human HCC827 cells assessed as protein degradation at 0.11 uM by immunoblot analysis relative to control; assay type: cell-based
PC-9 [7] = assay: In vivo ATTEC activity at LC3B/EGFR in human PC-9 cells implanted in NOD-SCID mouse assessed as protein degradation at 20 mg/kg, ip measured after 24 hrs by Western blot analysis; assay type: functional, organism-based
[8] = target: T1, Microtubule-associated protein 1 light chain 3 beta/Epidermal growth factor receptor; assay: Binding affinity to biotinylated LC3B/EGFR in human HCC827 cells BLI assay; assay type: cell-based
[9] = target: T1, Microtubule-associated protein 1 light chain 3 beta/Epidermal growth factor receptor; assay: Binding affinity to biotinylated LC3B/EGFR in human HCC827 cells assessed as dissociation constant BLI assay; assay type: cell-based
[10] = target: T1, Microtubule-associated protein 1 light chain 3 beta/Epidermal growth factor receptor; assay: ATTEC activity at LC3B/EGFR in human HCC827 cells assessed as increase in density of lysosomes incubated for 4 hrs by LysoTracker Red staining based analysis; assay type: cell-based

Row | IC50 (A549) [µM] | IC50 (HCC827) [µM] | IC50 (PC-9 [1]) [µM] | IC50 (NCI-H3255) [µM] | IC50 (NCI-H1975) [µM] | DC50 [2] [µM] | Emax [4] [%] | Emax [5] [%] | Emax [6] [%] | Activity [8] | Kd [9] [µM] | Activity [10] | Compound | Activity (L02) | Activity (PC-9 [3]) | Activity (PC-9 [7])
1 | > 10 | > 10 | > 10 | > 10 | > 10 | > 10 | – | – | – | – | – | – | COc1cc2ncnc(Nc3ccc(F)c(Cl)c3)c2cc1OCCCCCCNC(=O)COc1c(Br)cc(/C=C2\C(=O)Nc3ccc(I)cc32)cc1Br | Non-Toxic | – | –
2 | > 10 | 1.06 | 3.12 | 2.84 | > 10 | > 10 | – | – | – | – | – | – | COc1cc2ncnc(Nc3ccc(F)c(Cl)c3)c2cc1OCCOCCOCCNC(=O)COc1c(Br)cc(/C=C2\C(=O)Nc3ccc(Br)cc32)cc1Br | Non-Toxic | Active | –
3 | > 10 | 6.03 | 3.81 | 2 | > 10 | 8.49 | – | – | – | – | – | – | COc1cc2ncnc(Nc3ccc(F)c(Cl)c3)c2cc1OCCOCCOCCNC(=O)COc1c(Br)cc(/C=C2\C(=O)Nc3ccc(Cl)cc32)cc1Br | Non-Toxic | Active | –
4 | > 10 | 5.87 | > 10 | 4.58 | > 10 | 0.94 | – | – | – | – | – | – | COc1cc2ncnc(Nc3ccc(F)c(Cl)c3)c2cc1OCCOCCNC(=O)COc1c(Br)cc(/C=C2\C(=O)Nc3ccc(Cl)cc32)cc1Br | Non-Toxic | Active | –
5 | > 10 | 0.21 | > 10 | 6.04 | > 10 | > 10 | 5.8 | – | – | – | – | – | COc1cc2ncnc(Nc3ccc(F)c(Cl)c3)c2cc1OCCCCNC(=O)COc1c(Br)cc(/C=C2\C(=O)Nc3ccc(I)cc32)cc1Br | Non-Toxic | – | –
6 | > 10 | > 10 | > 10 | 5.18 | > 10 | > 10 | – | – | – | – | – | – | COc1cc2ncnc(Nc3ccc(F)c(Cl)c3)c2cc1OCCOCCNC(=O)COc1c(Br)cc(/C=C2\C(=O)Nc3ccc(Br)cc32)cc1Br | Non-Toxic | Active | –
7 | > 10 | 1.28 | 7.96 | 3.1 | > 10 | > 10 | – | 20.2 | – | – | – | – | COc1cc2ncnc(Nc3ccc(F)c(Cl)c3)c2cc1OCCOCCNC(=O)COc1c(Br)cc(/C=C2\C(=O)Nc3ccc(I)cc32)cc1Br | Non-Toxic | – | –
8 | > 10 | 2.78 | 11.1 | 4.79 | > 10 | 3.62 | – | – | – | – | – | – | COc1cc2ncnc(Nc3ccc(F)c(Cl)c3)c2cc1OCCOCCOCCNC(=O)COc1c(Br)cc(/C=C2\C(=O)Nc3ccc(I)cc32)cc1Br | Non-Toxic | – | –
9 | > 10 | 2.19 | > 10 | 6.5 | > 10 | > 10 | – | – | 9.1 | – | – | – | COc1cc2ncnc(Nc3ccc(F)c(Cl)c3)c2cc1OCCCCCCCCNC(=O)COc1c(Br)cc(/C=C2\C(=O)Nc3ccc(I)cc32)cc1Br | Non-Toxic | – | –
10 | > 10 | 3.84 | 5.12 | 2.54 | > 10 | 2.77 | – | – | – | – | – | – | COc1cc2ncnc(Nc3ccc(F)c(Cl)c3)c2cc1OCCOCCOCCOCCNC(=O)COc1c(Br)cc(/C=C2\C(=O)Nc3ccc(Br)cc32)cc1Br | Non-Toxic | Active | –
11 | – | – | – | – | – | – | – | – | – | – | – | – | COc1cc2ncnc(Nc3ccc(F)c(Cl)c3)c2cc1OCCCN1CCOCC1 | – | – | inactive
12 | > 10 | 0.937 | 3.78 | 1.13 | > 10 | > 10 | – | – | – | – | – | – | COc1cc2ncnc(Nc3ccc(F)c(Cl)c3)c2cc1OCCOCCOCCOCCNC(=O)COc1c(Br)cc(/C=C2\C(=O)Nc3ccc(C)cc32)cc1Br | Non-Toxic | Active | –
13 | > 10 | 1.72 | 3.53 | 2.46 | > 10 | > 10 | – | – | – | – | – | – | COc1cc2ncnc(Nc3ccc(F)c(Cl)c3)c2cc1OCCOCCNC(=O)COc1c(Br)cc(/C=C2\C(=O)Nc3ccc(C)cc32)cc1Br | Non-Toxic | Active | –
14 | > 10 | 1.16 | 3.63 | 0.904 | > 10 | 4.38 | – | – | – | Active | 2.2 | Active | COc1cc2ncnc(Nc3ccc(F)c(Cl)c3)c2cc1OCCOCCNC(=O)COc1c(Br)cc(/C=C2\C(=O)Nc3ccccc32)cc1Br | Non-Toxic | – | –
15 | > 10 | 0.862 | 1.36 | 1.83 | > 10 | > 10 | – | – | – | – | – | – | COc1cc2ncnc(Nc3ccc(F)c(Cl)c3)c2cc1OCCOCCOCCNC(=O)COc1c(Br)cc(/C=C2\C(=O)Nc3ccc(C)cc32)cc1Br | Non-Toxic | Active | –
16 | > 10 | 1.15 | 1.43 | 0.908 | 3.18 | > 10 | – | – | – | – | – | – | COc1cc2ncnc(Nc3ccc(F)c(Cl)c3)c2cc1OCCOCCOCCNC(=O)COc1c(Br)cc(/C=C2\C(=O)Nc3ccccc32)cc1Br | Non-Toxic | Active | –
17 | > 10 | 1.72 | 1.09 | 1.43 | > 10 | > 10 | 26 | – | – | – | – | – | COc1cc2ncnc(Nc3ccc(F)c(Cl)c3)c2cc1OCCOCCOCCOCCNC(=O)COc1c(Br)cc(/C=C2\C(=O)Nc3ccccc32)cc1Br | Non-Toxic | Active | –
18 | > 10 | 0.923 | 7.04 | 3.41 | > 10 | 6.42 | – | – | – | – | – | – | COc1cc2ncnc(Nc3ccc(F)c(Cl)c3)c2cc1OCCOCCOCCOCCNC(=O)C(C)Oc1c(Br)cc(/C=C2\C(=O)Nc3ccc(I)cc32)cc1Br (stereo not given) | Non-Toxic | Active | –
19 | > 10 | > 10 | 7.72 | 4.85 | > 10 | > 10 | – | 9.1 | – | – | – | – | COc1cc2ncnc(Nc3ccc(F)c(Cl)c3)c2cc1OCCOCCOCCOCCNC(=O)COc1c(Br)cc(/C=C2\C(=O)Nc3ccc(Cl)cc32)cc1Br | Non-Toxic | – | –
20 | > 10 | 1.15 | 6.76 | 4.14 | > 10 | 5.81 | – | – | – | – | – | – | COc1cc2ncnc(Nc3ccc(F)c(Cl)c3)c2cc1OCCOCCOCCOCCOCCNC(=O)COc1c(Br)cc(/C=C2\C(=O)Nc3ccc(I)cc32)cc1Br | Non-Toxic | – | –
21 | > 10 | 0.976 | > 10 | 4.93 | > 10 | > 10 | – | – | – | – | – | – | COc1cc2ncnc(Nc3ccc(F)c(Cl)c3)c2cc1OCCCCCCCCCCNC(=O)COc1c(Br)cc(/C=C2\C(=O)Nc3ccc(I)cc32)cc1Br | Non-Toxic | – | –

Source: ChEMBL document CHEMBL5500346, “Targeting EGFR degradation by autophagosome degraders” (Eur J Med Chem, 2024)
